# Reference: US20040209843A1, “Aqueous cilostazol preparation for injection” (priority 2001, published 2004)
# Tests used:
# [1] = ordinary temperatures; cited from earlier work
# [2] = saturated concentration (solubility) of cilostazol in aqueous cyclodextrin solutions, determined by HPLC; format: physicochemical; conditions: aqueous with cosolvent or surfactant or cyclodextrin, thermodynamic from solid; excess cilostazol in water for injection with the row's cyclodextrin compound at the row's concentration (g/L); shaken at 60° C. for 24 hours, membrane filtered, HPLC of filtrate
# Procedure: Each of the following cyclodextrin compounds was dissolved in water for injection. To this, an excess amount of cilostazol was added and the mixture was shaken at 60° C. for 24 hours. Then, the mixture was filtered through a membrane filter to remove insoluble materials and the amount of cilostazol in the filtrate was determined by the method of HPLC (High Performance Liquid Chromatography) to calculate the saturated concentration (solubility). Cyclodextrin compounds used were alpha-cyclodextrin (Trade Name: Celdex A-100, manufactured by NIHON SHOKUHIN KAKO Co. Ltd., beta-cyclodextrin (Trade Name: Celdex B-100, manufactured by NIHON SHOKUHIN KAKO Co. Ltd.), gamma-cyclodextrin (Trade Name: Celdex C-100, manufactured by NIHON SHOKUHIN KAKO Co. Ltd.), 6-O-alpha-maltosyl-beta-cyclodextrin (manufactured by Ensuiko Sugar Refining Co., Ltd), 2-hydroxypropyl-beta-cyclodextrin (Trade Name: Celdex HP-beta-CD, manufactured by NIHON SHOKUHIN KAKO Co. Ltd), hepta-substituted sulfobutylether-beta-cyclodextrin sodium salt (hereinafter abbreviated as SBE7-beta-CD)(Trade Name: Captisol, manufactured by CyDex Inc.).
# Also, as a Reference Example, the solubility of cilostazol without addition of cyclodextrin compounds was determined similarly.
smiles,measurement,setting,value
"O=C1CCc2cc(OCCCCc3nnnn3C3CCCCC3)ccc2N1 [Cilostazol, 6-[4-(1-cyclohexyl-1,2,3,4-Tetrazol-5-yl)butoxy]-3,4-dihydrocarbostyril]",solubility in water,[1],about 3 μg/ml
same,solubility at 24 h,[2],3.5 µg/mL
